{"source": "paper PMC8126637", "about": "(Frontiers in Molecular Biosciences, 2021)", "data": [{"biological_target": "T1, Universal stress protein (USP, Rv1636) (Mycobacterium tuberculosis, UniProt P9WFC9)", "T1 construct": "His-tagged Rv1636", "T1 sequence (P9WFC9 whole entry)": "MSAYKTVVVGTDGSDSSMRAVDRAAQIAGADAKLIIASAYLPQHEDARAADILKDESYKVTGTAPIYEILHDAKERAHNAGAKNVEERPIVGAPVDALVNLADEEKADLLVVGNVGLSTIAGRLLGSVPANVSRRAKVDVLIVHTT", "assay": "biochemical", "assay_type": "binding", "units": {"Kd": "µM"}, "values": [{"compound": "COc1cc(/C=C/C(=O)CC(=O)/C=C/c2ccc(O)c(OC)c2)ccc1O", "note": "[Curcumin]", "Kd": "17.4 ± 0.8"}, {"compound": "NC(=O)NCCC[C@@H](NC(=O)CCn1ccc2c(Cl)cccc21)C(=O)O", "note": "[compound 20, (R)-2-(3-(4-chloro-1H-indol-1-yl)propanamido)-5-ureidopentanoic acid]", "Kd": "1720 ± 731"}, {"compound": "COc1cc2c(cc1OC)-c1cc(NCCCCN)nc(=O)n1CC2", "note": "[compound 19, 2-((4-aminobutyl)amino)-9,10-dimethoxy-6,7-dihydro-4H-pyrimido[6,1-a]isoquinolin-4-one]", "Kd": "998 ± 82"}]}]}
